According to patent publication US7897175B2, “Dosage forms comprising a CETP inhibitors and an HMG-CoA reductase inhibitor” (Bend Research, Inc., priority 2002, dated 2011):

What was measured:
[1] = Aqueous solubility of torcetrapib; type: physicochemical; settings: aqueous solution (not specified further), water, about 22° C.
Procedure: The CETP inhibitor may be any compound capable of inhibiting the cholesteryl ester transfer protein. Solid amorphous dispersions are particularly useful for CETP inhibitors that have sufficiently low aqueous solubility, low bioavailability or slow rate of absorption such that it is desirable to increase their concentration in an aqueous environment of use. […] Many CETP inhibitors have even lower solubilities (some even less than 0.1 μg/mL), and require dramatic concentration enhancement to be sufficiently bioavailable upon oral dosing for effective plasma concentrations to be reached at practical doses.
CETP inhibitors, in particular torcetrapib, and methods for preparing such compounds are disclosed in detail in U.S. Pat. Nos. 6,197,786 and 6,313,142, in PCT Application Nos. WO 01/40190A1, WO 02/088085A2, and WO 02/088069A2, the disclosures of which are herein incorporated by reference. Torcetrapib has an unusually low solubility in aqueous environments such as the lumenal fluid of the human GI tract. The aqueous solubility of torceptrapib is less than about 0.04 μg/ml. Torcetrapib must be presented to the GI tract in a solubility-enhanced form in order to achieve a sufficient drug concentration in the GI tract in order to achieve sufficient absorption into the blood to elicit the desired therapeutic effect.

[2] = In vitro dissolution test using a microcentrifuge method (PBS); type: physicochemical; settings: for AUC90 (area under the aqueous concentration versus time curve after 90 minutes) / C1200 (concentration at 1200 minutes) / MDC90 (maximum concentration of torcetrapib in solution during the first 90 minutes): receptor solution PBS; for Torcetrapib Concentration / AUC: PBS pH 6.5, 37° C.; for Torcetrapib Concentration: 1000 μg/mL if all drug dissolved
Procedure: The spray-dried solid amorphous dispersion was evaluated in an in vitro dissolution test using a microcentrifuge method. In this test, 7.2 mg of the spray-dried solid amorphous dispersion was placed into a microcentrifuge tube. The tube was placed in a 37° C. sonicating bath, and 1.8 mL phosphate buffered saline (PBS) at pH 6.5 and 290 mOsm/kg was added, resulting in a torcetrapib concentration of 1000 μg/mL if all of the drug had dissolved. The sample was quickly mixed using a vortex mixer for about 60 seconds. The sample was centrifuged at 13,000 G at 37° C. for 1 minute. The resulting supernatant solution was then sampled and diluted 1:6 (by volume) with methanol and then analyzed by high-performance liquid chromatography (HPLC). The contents of the tube was mixed on the vortex mixer and allowed to stand undisturbed at 37° C. until the next sample was taken. Samples were collected at 4, 10, 20, 40, 90, and 1200 minutes. The concentrations of drug obtained in these samples are shown in Table 1, which represent the average of duplicate tests.
As a control, an in vitro dissolution test was performed using the procedures described above except that 1.8 mg of crystalline drug was used.
The spray-dried solid amorphous dispersion was evaluated in an in vitro dissolution test using a microcentrifuge method. In this test, 4.5 mg of the spray -dried solid amorphous dispersion was placed into a microcentrifuge tube. The tube was placed in a 37° C. sonicating bath, and 1.8 mL phosphate buffered saline (PBS) at ph 6.5 and 290 mOsm/kg was added, resulting in a torcetrapib concentration of 1000 μg/mL if all of the drug dissolved. The sample was quickly mixed using a vortex mixer for about 60 seconds. The sample was centrifuged at 13,000 G at 37° C. for 1 minute. The resilting superatant solution was then sampled and diluted 1:6 (by volume) with methanol and then analyzed by high-performance liquid chromatography (HPLC). The contents of the tube was mixed on the vortex mixer and allowed to stand undisturbed at 37° C. until the next sample was taken. Samples were collected at 4, 10, 20, 40, 90, and 1200 minutes. The concentrations of drug obtained in these samples are shown in Table 9, which represent the average of duplicate tests. The results using crystalline drug are included in Table 9 for […]

[3] = Example 1 test (dispersion 25 wt % torcetrapib)
[4] = Example 12 test (dispersion 40 wt % torcetrapib, HPMCAS-HG)
[5] = time 0 min, Example 1 test (dispersion 25 wt % torcetrapib, HPMCAS-MG)
[6] = time 0 min, Example 12 test (dispersion 40 wt % torcetrapib, HPMCAS-HG)
[7] = time 4 min, Example 1 test (dispersion 25 wt % torcetrapib, HPMCAS-MG)
[8] = time 4 min, Example 12 test (dispersion 40 wt % torcetrapib, HPMCAS-HG)
[9] = time 10 min, Example 1 test (dispersion 25 wt % torcetrapib, HPMCAS-MG)
[10] = time 10 min, Example 12 test (dispersion 40 wt % torcetrapib, HPMCAS-HG)
[11] = time 20 min, Example 1 test (dispersion 25 wt % torcetrapib, HPMCAS-MG)
[12] = time 20 min, Example 12 test (dispersion 40 wt % torcetrapib, HPMCAS-HG)
[13] = time 40 min, Example 1 test (dispersion 25 wt % torcetrapib, HPMCAS-MG)
[14] = time 40 min, Example 12 test (dispersion 40 wt % torcetrapib, HPMCAS-HG)
[15] = time 90 min, Example 1 test (dispersion 25 wt % torcetrapib, HPMCAS-MG)
[16] = time 90 min, Example 12 test (dispersion 40 wt % torcetrapib, HPMCAS-HG)
[17] = time 1200 min, Example 1 test (dispersion 25 wt % torcetrapib, HPMCAS-MG)
[18] = time 1200 min, Example 12 test (dispersion 40 wt % torcetrapib, HPMCAS-HG)

CCOC(=O)N1c2ccc(C(F)(F)F)cc2[C@@H](N(Cc2cc(C(F)(F)F)cc(C(F)(F)F)c2)C(=O)OC)C[C@H]1CC [Crystalline Drug, [2R,4S]-4-[(3,5-bis-trifluoromethyl-benzyl)-methoxycarbonyl-amino]-2-ethyl-6-trifluoromethyl-3,4-dihydro-2H-quinoline-1-carboxylic acid ethyl ester]
solubility [1]: < 0.04 µg/mL | AUC90 (area under the aqueous concentration versus time curve after 90 minutes) [2, 3]: <88 min-μg/mL | C1200 (concentration at 1200 minutes) [2, 3]: <1 µg/mL | MDC90 (maximum concentration of torcetrapib in solution during the first 90 minutes) [2, 3]: <1 µg/mL | AUC90 (area under the aqueous concentration versus time curve after 90 minutes) [2, 4]: <88 min-μg/mL | C1200 (concentration at 1200 minutes) [2, 4]: <1 µg/mL | MDC90 (maximum concentration of torcetrapib in solution during the first 90 minutes) [2, 4]: <1 µg/mL | Torcetrapib Concentration [2, 5]: 0 µg/mL | Torcetrapib Concentration [2, 6]: 0 µg/mL | AUC [2, 5]: 0 min-μg/mL | AUC [2, 6]: 0 min-μg/mL | Torcetrapib Concentration [2, 7]: <1 µg/mL | Torcetrapib Concentration [2, 8]: <1 µg/mL | AUC [2, 7]: <2 min-μg/mL | AUC [2, 8]: <2 min-μg/mL | Torcetrapib Concentration [2, 9]: <1 µg/mL | Torcetrapib Concentration [2, 10]: <1 µg/mL | AUC [2, 9]: <8 min-μg/mL | AUC [2, 10]: <8 min-μg/mL | Torcetrapib Concentration [2, 11]: <1 µg/mL | Torcetrapib Concentration [2, 12]: <1 µg/mL | AUC [2, 11]: <18 min-μg/mL | AUC [2, 12]: <18 min-μg/mL | Torcetrapib Concentration [2, 13]: <1 µg/mL | Torcetrapib Concentration [2, 14]: <1 µg/mL | AUC [2, 13]: <38 min-μg/mL | AUC [2, 14]: <38 min-μg/mL | Torcetrapib Concentration [2, 15]: <1 µg/mL | Torcetrapib Concentration [2, 16]: <1 µg/mL | AUC [2, 15]: <88 min-μg/mL | AUC [2, 16]: <88 min-μg/mL | Torcetrapib Concentration [2, 17]: <1 µg/mL | Torcetrapib Concentration [2, 18]: <1 µg/mL | AUC [2, 17]: <1,200 min-μg/mL | AUC [2, 18]: <1,200 min-μg/mL
